Values quoted from earlier work, collected in US12473247B2, “Encoded design integrated synthesis of nucleic acids, and phospholipids, and related pharmaceutical products” (priority 2023, dated 2025).

Legend:
[1] = ratio relative to cortisol = 1; pharmacological potency of corticosteroids

C[C@]12C=CC(=O)C=C1CC[C@@H]1[C@@H]2[C@@H](O)C[C@@]2(C)[C@H]1CC[C@]2(O)C(=O)CO [prednisolone]
relative activity of dexamethasone:prednisolone:cortisol [1]: ~4

c1ccc2c(c1)ccc1c3ccccc3ccc21 [chrysene]
solubility in aqueous: insoluble

C[C@]12CCC(=O)C=C1CC[C@@H]1[C@@H]2[C@@H](O)C[C@@]2(C)[C@H]1CC[C@]2(O)C(=O)CO [cortisol]
relative activity of dexamethasone:prednisolone:cortisol [1]: ~1
